Measurements published in patent US9686985B2, “Fungicide N-cycloalkyl-N-bicyclicmethylene-carboxamide derivatives” (BAYER INTELLECTUAL PROPERTY GMBH, priority 2012, dated 2017).

Legend:
[1] = log P by HPLC on reversed-phase column (EEC Directive 79/831 Annex V.A8); format: physicochemical; conditions: Table 1; HPLC C18, 40° C., 0.1% aqueous formic acid and acetonitrile gradient
Description: In table 1, the log P values were determined in accordance with EEC Directive 79/831 Annex V.A8 by HPLC (High Performance Liquid Chromatography) on a reversed-phase column (C 18), using the method described below: Temperature: 40° C.; Mobile phases: 0.1% aqueous formic acid and acetonitrile; linear gradient from 10% acetonitrile to 90% acetonitrile. Calibration was carried out using unbranched alkan-2-ones (comprising 3 to 16 carbon atoms) with known log P values (determination of the log P values by the retention times using linear interpolation between two successive alkanones). lambda-max-values were determined using UV-spectra from 200 nm to 400 nm and the peak values of the chromatographic signals.

Sphaerotheca fuliginea = assay: Example B: in vivo preventive test on Sphaerotheca fuliginea (powdery mildew on cucurbits); conditions: table B; 500 ppm; gherkin plants; grading 12 days after contamination
Description: Example B: In Vivo Preventive Test on Sphaerotheca fuliginea (Powdery Mildew on Cucurbits) […] Gherkin plants (“Vert petit de Paris” variety), sown in starter cups on a 50/50 peat soil-pozzolana substrate and grown at 24° C., are treated at the Z11 cotyledon stage by spraying with the active ingredient prepared as described above. Plants, used as controls, are treated with the mixture of acetone/tween/DMSO/water not containing the active material. After 24 hours, the plants are contaminated by spraying the cotyledons with an aqueous suspension of Sphaerotheca fuliginea spores (100 000 spores per mL). The spores are collected from infected plants. The contaminated gherkin plants are incubated at about 20° C. and at 70-80% relative humidity. Grading (% of efficacy) is carried out 12 days after the contamination, in comparison with the control plants.

Alternaria brassicae = assay: Example D: in vivo preventive test on Alternaria brassicae (leaf spot on radish); conditions: table D; 500 ppm; radish plants; grading 6 days after contamination
Description: Example D: In Vivo Preventive Test on Alternaria brassicae (Leaf Spot on Radish) […] Radish plants (“Pernod Clair” variety), sown in starter cups on a 50/50 peat soil pozzolana substrate and grown at 17° C., are treated at the cotyledon stage by spraying with the active ingredient prepared as described above. Plants, used as controls, are treated with the mixture of acetone/tween/DMSO/water not containing the active material. After 24 hours, the plants are contaminated by spraying the cotyledons with an aqueous suspension of Alternaria brassicae spores (50 000 spores per mL). The spores are collected from a 15-day-old culture. The contaminated radish plants are incubated at 20° C. and at 100% relative humidity. Grading (% of efficacy) is carried out 6 days after the contamination, in comparison with the control plants.

Septoria tritici = assay: Example L: in vivo preventive test on Septoria tritici (wheat); conditions: table L; 500 ppm; wheat plants; grading 24 days after contamination
Description: Example L: In Vivo Preventive Test on Septoria tritici (Wheat) […] Wheat plants (“Scipion” variety), sown in starter cups on a 50/50 peat soil pozzolana substrate and grown at 22° C., are treated at the 1 leaf stage (10 cm height) by spraying with the active ingredient prepared as described above. Plants, used as controls, are treated with the mixture of acetone/tween/DMSO/water not containing the active material. After 24 hours, the plants are contaminated by spraying the leaves with an aqueous suspension of cryopreserved Septoria tritici spores (500 000 spores per mL). The contaminated wheat plants are incubated for 72 hours at 18° C. and at 100% relative humidity, and then for 21 days at 90% relative humidity. Grading (% of efficacy) is carried out 24 days after the contamination, in comparison with the control plants.

Pyrenophora teres = assay: Example N: in vivo preventive test on Pyrenophora teres (barley); conditions: table N; 500 ppm; barley plants; grading 14 days after contamination
Description: Example N: In Vivo Preventive Test on Pyrenophora teres (Barley) […] Barley plants (“Plaisant” variety), sown in starter cups on a 50/50 peat soil pozzolana substrate and grown at 22° C., are treated at the 1 leaf stage (10 cm height) by spraying with the active ingredient prepared as described above. Plants, used as controls, are treated with the mixture of acetone/tween/DMSO/water not containing the active material. After 24 hours, the plants are contaminated by spraying the leaves with an aqueous suspension of Pyrenophora teres spores (12 000 spores per mL). The spores are collected from a 12-day-old culture. The contaminated barley plants are incubated for 48 hours at 20° C. and at 100% relative humidity, and then for 12 days at 20° C. at 70-80% relative humidity. Grading (% of efficacy) is carried out 14 days after the contamination, in comparison with the control plants.

Puccinia recondita = assay: Example R: in vivo preventive test on Puccinia recondita (brown rust on wheat); conditions: table R; 500 ppm; wheat plants; grading 12 days after contamination
Description: Example R: In Vivo Preventive Test on Puccinia recondita (Brown Rust on Wheat) […] Wheat plants (“Scipion” variety), sown in starter cups on a 50/50 peat soil pozzolana substrate and grown at 22° C., are treated at the 1 leaf stage (10 cm height) by spraying with the active ingredient prepared as described above. Plants, used as controls, are treated with the mixture of acetone/tween/DMSO/water not containing the active material. After 24 hours, the plants are contaminated by spraying the leaves with an aqueous suspension of Puccinia recondita spores (100 000 spores per mL). The spores are collected from an infected plant and are suspended in water containing 2.5 mL/L of Tween 80 at 10%. The contaminated wheat plants are incubated for 24 hours at 20° C. and at 100% relative humidity, and then for 10 days at 20° C. and at 70-80% relative humidity. Grading (% of efficacy) is carried out 12 days after the contamination, in comparison with the control plants.

Botrytis cinerea = assay: Example S: in vivo preventive test on Botrytis cinerea (grey mould); conditions: table S; 500 ppm; gherkin plants; grading 4 to 5 days after contamination
Description: Example S: In Vivo Preventive Test on Botrytis cinerea (Grey Mould) […] Gherkin plants (“Vert petit de Paris” variety), sown in starter cups on a 50/50 peat soil pozzolana substrate and grown at 24° C., are treated at the Z11 cotyledon stage by spraying with the active ingredient prepared as described above. Plants, used as controls, are treated with the mixture of acetone/tween/DMSO/water not containing the active material. After 24 hours, the plants are contaminated by spraying the cotyledons with an aqueous suspension of cryopreserved Botrytis cinerea spores (50 000 spores per mL). The spores are suspended in a nutrient solution composed of 10 g/L of PDB, 50 g/L of D-Fructose, 2 g/L of NH4NO3 and 1 g/L of KH2PO4. The contaminated gherkin plants are incubated at 17° C. and at 90% relative humidity. Grading (% of efficacy) is carried out 4 to 5 days after the contamination, in comparison with the control plants.

Uromyces appendiculatus = assay: Example G: in vivo preventive test on Uromyces appendiculatus (bean rust); conditions: bean plants
Description: Example G: In Vivo Preventive Test on Uromyces appendiculatus (Bean Rust) […] Bean plants (“Saxa” variety), sown in starter cups on a 50/50 peat soil pozzolana substrate and grown at 24° C., are treated at the 2 leaf stage (9 cm height) by spraying with the active ingredient prepared as described above. Plants, used as controls, are treated with the mixture of acetone/tween/DMSO/water not containing the active material. After 24 hours, the plants are contaminated by spraying the leaves with an aqueous suspension of Uromyces appendiculatus spores (150 000 spores per mL). The spores are collected from infected plants and are suspended in water containing 2.5 mL/L of Tween 80 at 10%. The contaminated bean plants are incubated for 24 hours at 20° C. and at 100% relative humidity, and then for 10 days at 20° C. and at 70-80% relative humidity. Grading (% of efficacy) is carried out 11 days after the contamination, in comparison with the control plants.

Pyricularia oryzae = format: in vivo; conditions: table Q; 500 ppm; rice plants; grading 6 days after contamination
Alternaria solani = assay: Example C: in vivo preventive test on Alternaria solani (tomato); conditions: table C2, dose 100 ppm, comparison with WO-2010/086311 compound
Description: Example C: In Vivo Preventive Test on Alternaria solani (Tomato) [table] To produce a suitable preparation of active compound, 1 part by weight of active compound is mixed with the stated amounts of solvent and emulsifier, and the concentrate is diluted with water to the desired concentration. To test for preventive activity, young plants are sprayed with the preparation of active compound at the stated rate of application. One day after this treatment, the plants are inoculated with an aqueous spore suspension of Alternaria solani. The plants remain for one day in an incubation cabinet at approximately 22° C. and a relative atmospheric humidity of 100%. Then the plants are placed in an incubation cabinet at approximately 20° C. and a relative atmospheric humidity of 96%.

[2] = table G1, 500 ppm, grading 11 days after contamination

SMILES	logP [1]	Efficacy (Sphaerotheca fuliginea) [%]	Efficacy (Alternaria brassicae) [%]	Efficacy (Septoria tritici) [%]	Efficacy (Pyrenophora teres) [%]	Efficacy (Puccinia recondita) [%]	Efficacy (Botrytis cinerea) [%]	Efficacy (Uromyces appendiculatus; [2]) [%]	Efficacy (Uromyces appendiculatus; table G2, dose 100 ppm) [%]	Efficacy (Uromyces appendiculatus; table G2, dose 500 ppm) [%]	Efficacy (Pyricularia oryzae) [%]	Efficacy (Alternaria solani)	Efficacy (Alternaria solani; listed as I.2 from WO-2010/086311) [%]
Cn1nc(C(F)F)c(C(=S)N(CC2CC(C)(C)c3ccccc32)C2CC2)c1F (stereo not drawn) [I.11]	4.69	100	100	100	100	94	100	–	–	–	–	–	–
Cn1nc(C(F)F)c(C(=O)N(CC2CCc3cccc(Cl)c32)C2CC2)c1F (stereo not drawn) [I.14]	3.80	100	100	97	93	81	–	100	50	100	75	–	–
CC1CCC(CN(C(=O)c2c(C(F)F)nn(C)c2F)C2CC2)c2ccccc21 (stereo not drawn) [I.24]	3.96	100	100	100	100	94	100	100	–	–	–	–	–
Cn1nc(C(F)F)c(C(=O)N(CC2CCc3c(F)cccc32)C2CC2)c1Cl (stereo not drawn) [I.8]	3.55	100	–	71	86	75	–	–	–	–	83	–	–
Cn1nc(C(F)F)c(C(=O)N(CC2CCc3cccc(Br)c32)C2CC2)c1F (stereo not drawn) [I.21]	3.92	100	100	93	79	88	–	98	–	–	83	–	–
Cc1cccc2c1CCC2CN(C(=O)c1c(C(F)F)nn(C)c1F)C1CC1 (stereo not drawn) [I.3]	3.71	100	97	100	100	94	–	100	88	100	97	–	–
Cn1nc(C(F)F)c(C(=O)N(CC2CCc3ccc(C(F)(F)F)cc32)C2CC2)c1F (stereo not drawn) [I.17]	3.87	100	–	94	86	100	100	100	–	–	–	–	–
Cc1nn(C)c(F)c1C(=O)N(C1CC1)C(C)C1CCCc2ccccc21 (stereo not drawn) [1.2 from WO-2010/086311, N-cyclopropyl-5-fluoro-1,3-dimethyl-N-[1-(1,2,3,4-tetrahydronaphthalen-1-yl)ethyl]-1H-pyrazole-4-carboxamide, reference compound]	–	–	–	–	–	–	–	–	–	–	–	no protection	0
Cn1nc(C(F)F)c(C(=O)N(CC2CCSc3ccc(Cl)cc32)C2CC2)c1F (stereo not drawn) [I.36]	3.83	85	100	79	94	78	97	100	–	–	–	–	–
Cn1nc(C(F)F)c(C(=O)N(CC2CCCCc3ccccc32)C2CC2)c1F (stereo not drawn) [I.30]	3.90	100	100	100	100	94	100	100	–	–	–	–	–
Cn1nc(C(F)F)c(C(=O)N(CC2CCOc3ccccc32)C2CC2)c1F (stereo not drawn) [I.31]	3.00	100	100	100	100	83	100	94	–	–	–	–	–
Cn1nc(C(F)F)c(C(=S)N(CC2CCc3c(Cl)cc(Cl)cc32)C2CC2)c1F (stereo not drawn) [I.20]	5.22	100	100	97	100	83	75	100	–	–	–	–	–
